This is an account of results in patent US20210070748A1, “INHIBITORS OF BRUTONS TYROSINE KINASE” (Pharmacyclics LLC, priority 2015, published 2021).

Structures are written as SMILES. Some results are limits rather than exact numbers.

As a reminder, the IC50 is the concentration that inhibits the measured activity by half.

What all share (format): biochemical
One assay addresses EGFR (Homo sapiens, UniProt P00533). As to the kind of experiment: Inhibition of a panel of kinases, in vitro HotSpot kinase assay: EGFR. To be noted: D-compounds panel data; 1 μM ATP. The method, then:
(§1) The degree of inhibition of a panel of kinases is determined using the in vitro HotSpot kinase assay (purified enzymes, ^33P-ATP, an appropriate substrate and 1 μM ATP).

The target of a further assay is LCK (Homo sapiens, UniProt P06239). As to the kind of experiment: Inhibition of a panel of kinases, in vitro HotSpot kinase assay: LCK. To be noted: D-compounds panel data; 1 μM ATP; read-out: IC50 LCK.
Another assay deals with T1, ITK (Homo sapiens, UniProt Q08881).
T1 sequence (Q08881 1-620): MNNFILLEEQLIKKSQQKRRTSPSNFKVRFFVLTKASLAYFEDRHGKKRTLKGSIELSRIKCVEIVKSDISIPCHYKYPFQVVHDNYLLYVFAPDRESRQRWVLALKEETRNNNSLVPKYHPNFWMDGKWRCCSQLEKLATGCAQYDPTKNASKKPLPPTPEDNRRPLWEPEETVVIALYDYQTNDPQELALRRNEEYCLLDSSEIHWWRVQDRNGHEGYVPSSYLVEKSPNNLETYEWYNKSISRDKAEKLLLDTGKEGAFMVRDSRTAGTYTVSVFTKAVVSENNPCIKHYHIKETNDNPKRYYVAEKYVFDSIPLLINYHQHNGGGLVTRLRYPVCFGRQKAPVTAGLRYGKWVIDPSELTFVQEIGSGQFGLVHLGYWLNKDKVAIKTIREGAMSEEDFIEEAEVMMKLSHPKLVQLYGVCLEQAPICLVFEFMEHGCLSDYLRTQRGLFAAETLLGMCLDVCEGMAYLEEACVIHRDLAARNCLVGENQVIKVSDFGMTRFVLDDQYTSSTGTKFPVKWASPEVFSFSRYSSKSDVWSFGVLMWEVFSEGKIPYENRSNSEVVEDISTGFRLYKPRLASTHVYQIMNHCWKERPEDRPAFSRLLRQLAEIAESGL
Description: Inhibition of a panel of kinases, in vitro HotSpot kinase assay: ITK. The note with it: D-compounds panel data; 1 μM ATP. The method, then:
as §1

Another assay deals with T2, JAK3 (Homo sapiens, UniProt P52333).
T2 sequence (P52333 1-1124): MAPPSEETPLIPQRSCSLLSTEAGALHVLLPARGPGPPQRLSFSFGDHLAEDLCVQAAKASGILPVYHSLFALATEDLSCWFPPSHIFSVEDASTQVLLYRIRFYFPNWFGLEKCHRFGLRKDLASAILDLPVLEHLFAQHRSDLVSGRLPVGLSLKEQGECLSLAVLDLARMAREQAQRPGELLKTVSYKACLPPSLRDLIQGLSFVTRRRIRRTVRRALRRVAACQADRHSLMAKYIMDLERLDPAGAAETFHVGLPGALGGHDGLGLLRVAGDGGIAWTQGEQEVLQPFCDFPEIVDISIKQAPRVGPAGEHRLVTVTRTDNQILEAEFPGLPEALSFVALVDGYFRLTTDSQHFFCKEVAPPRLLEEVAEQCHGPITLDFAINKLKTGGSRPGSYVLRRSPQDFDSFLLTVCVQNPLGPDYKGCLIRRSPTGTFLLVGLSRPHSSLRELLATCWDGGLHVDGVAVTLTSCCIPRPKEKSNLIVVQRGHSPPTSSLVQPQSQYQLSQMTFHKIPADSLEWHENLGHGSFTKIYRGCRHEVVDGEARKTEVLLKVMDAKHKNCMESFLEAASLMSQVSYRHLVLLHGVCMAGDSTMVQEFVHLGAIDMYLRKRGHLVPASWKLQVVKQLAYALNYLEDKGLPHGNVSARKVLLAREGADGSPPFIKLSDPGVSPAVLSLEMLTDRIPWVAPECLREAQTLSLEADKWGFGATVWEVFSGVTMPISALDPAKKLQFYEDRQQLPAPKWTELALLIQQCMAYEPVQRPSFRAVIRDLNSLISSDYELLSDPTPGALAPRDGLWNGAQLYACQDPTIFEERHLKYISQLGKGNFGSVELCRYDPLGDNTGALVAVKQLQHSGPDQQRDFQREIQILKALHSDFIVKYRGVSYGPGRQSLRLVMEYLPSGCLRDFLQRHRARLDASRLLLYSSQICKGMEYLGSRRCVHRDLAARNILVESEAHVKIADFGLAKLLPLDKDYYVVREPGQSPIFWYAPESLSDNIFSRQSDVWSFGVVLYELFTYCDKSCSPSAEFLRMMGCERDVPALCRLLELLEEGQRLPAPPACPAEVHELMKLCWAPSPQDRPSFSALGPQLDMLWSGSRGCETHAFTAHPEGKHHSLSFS
Description: Inhibition of a panel of kinases, in vitro HotSpot kinase assay: JAK3. The note with it: D-compounds panel data; 1 μM ATP; read-out: IC50 JAK3.

Sequence of LCK (P06239 whole entry): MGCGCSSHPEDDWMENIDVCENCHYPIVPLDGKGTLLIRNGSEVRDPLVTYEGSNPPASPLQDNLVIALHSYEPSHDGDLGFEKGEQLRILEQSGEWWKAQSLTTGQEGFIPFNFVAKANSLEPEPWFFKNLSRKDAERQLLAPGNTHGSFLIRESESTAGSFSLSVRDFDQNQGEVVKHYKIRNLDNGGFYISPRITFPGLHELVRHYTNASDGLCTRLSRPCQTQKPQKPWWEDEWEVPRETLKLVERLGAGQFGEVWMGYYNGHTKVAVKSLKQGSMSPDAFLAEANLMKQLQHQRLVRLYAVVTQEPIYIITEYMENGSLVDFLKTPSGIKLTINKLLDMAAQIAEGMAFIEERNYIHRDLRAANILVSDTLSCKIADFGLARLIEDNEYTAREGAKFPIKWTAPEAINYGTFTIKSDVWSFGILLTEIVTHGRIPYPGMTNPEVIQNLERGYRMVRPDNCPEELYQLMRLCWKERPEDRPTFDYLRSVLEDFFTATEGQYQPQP
Sequence of EGFR (P00533 25-1210): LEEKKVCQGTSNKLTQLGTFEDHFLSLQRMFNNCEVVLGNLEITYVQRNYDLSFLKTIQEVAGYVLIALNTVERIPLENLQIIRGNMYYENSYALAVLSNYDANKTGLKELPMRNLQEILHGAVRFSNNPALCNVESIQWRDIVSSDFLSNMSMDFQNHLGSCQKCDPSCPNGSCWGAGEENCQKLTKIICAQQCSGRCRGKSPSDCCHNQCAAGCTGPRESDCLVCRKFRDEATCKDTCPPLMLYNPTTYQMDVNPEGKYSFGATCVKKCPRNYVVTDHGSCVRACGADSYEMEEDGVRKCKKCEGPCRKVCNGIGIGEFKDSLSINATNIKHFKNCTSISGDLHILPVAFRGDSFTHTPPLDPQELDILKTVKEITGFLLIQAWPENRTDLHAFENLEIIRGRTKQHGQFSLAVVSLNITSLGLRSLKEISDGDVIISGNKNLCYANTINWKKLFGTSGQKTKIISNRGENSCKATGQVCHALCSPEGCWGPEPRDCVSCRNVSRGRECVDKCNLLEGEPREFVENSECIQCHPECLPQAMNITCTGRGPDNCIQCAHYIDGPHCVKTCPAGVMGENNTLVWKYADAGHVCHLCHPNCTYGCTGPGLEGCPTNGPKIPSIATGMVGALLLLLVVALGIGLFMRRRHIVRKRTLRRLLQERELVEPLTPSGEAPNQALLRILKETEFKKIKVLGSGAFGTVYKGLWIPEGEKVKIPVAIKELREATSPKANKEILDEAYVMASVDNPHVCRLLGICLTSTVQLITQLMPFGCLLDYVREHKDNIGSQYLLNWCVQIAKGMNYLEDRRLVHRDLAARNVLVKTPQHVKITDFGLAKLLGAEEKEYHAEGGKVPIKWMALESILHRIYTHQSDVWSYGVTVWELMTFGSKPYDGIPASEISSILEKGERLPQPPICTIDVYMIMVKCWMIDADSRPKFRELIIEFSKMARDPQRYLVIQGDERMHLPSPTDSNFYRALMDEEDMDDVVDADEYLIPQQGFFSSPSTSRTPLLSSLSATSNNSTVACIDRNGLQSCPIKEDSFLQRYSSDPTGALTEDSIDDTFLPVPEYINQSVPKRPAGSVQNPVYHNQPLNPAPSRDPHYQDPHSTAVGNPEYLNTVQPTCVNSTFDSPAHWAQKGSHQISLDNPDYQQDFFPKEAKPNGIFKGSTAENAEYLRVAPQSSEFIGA

Take `C[C@@H]1[C@H](NC(=O)c2ccc(C(C)(C)CO)cc2)CCCN1c1cnc(C(N)=O)c(Nc2cnn(C)c2)n1` [Example D-94, 5-[(2R,3R)-3-[4-(1-hydroxy-2-methylpropan-2-yl)benzamido]-2-methylpiperidin-1-yl]-3-[(1-methyl-1H-pyrazol-4-yl)amino]pyrazine-2-carboxamide]: the IC50 on EGFR was in the range of 1000 to 10000 nM; on LCK, 100 to 1000 nM; against ITK, 100 to 1000 nM; at JAK3, 100 to 1000 nM.
For `C[C@@H]1[C@H](NC(=O)c2ccc(C3CC3)cc2)CCCN1c1cnc(C(N)=O)c(Nc2ccc(OC3CCN(C)CC3)cc2)n1` [Example D-89], the IC50 at EGFR lay within 100 to 1000 nM; on LCK it was 10 to 100 nM; against ITK, 100 to 1000 nM; at JAK3 it was 100 to 1000 nM.
Consider `C[C@@H]1[C@H](NC(=O)c2ccc(C(C)(C)N)cc2)CCCN1c1cnc(C(N)=O)c(Nc2cnn(C)c2)n1` [Example D-51, 5-[(2R,3R)-3-[4-(2-aminopropan-2-yl)benzamido]-2-methylpiperidin-1-yl]-3-[(1-methyl-1H-pyrazol-4-yl)amino]pyrazine-2-carboxamide], for which the IC50 fell in the range of 100 to 1000 nM against EGFR, 10 to 100 nM on LCK, 10 to 100 nM against ITK and 100 to 1000 nM at JAK3.
`Cn1cc(Nc2nc(N3CCC(NC(=O)c4ccc(C5CC5)cc4)C(O)C3)cnc2C(N)=O)cn1` (single isomer, unassigned) [Example D-29, Trans-5-[4-(4-cyclopropylbenzamido)-3-hydroxypiperidin-1-yl]-3-[(1-methyl-1H-pyrazol-4-yl)amino]pyrazine-2-carboxamide]: the IC50 against EGFR is above 10000 nM; at LCK, above 10000 nM; against ITK, 1000 to 10000 nM; on JAK3 it was above 10000 nM.
Regarding `C[C@@H]1[C@H](NC(=O)c2ccc(C3CC3)cc2F)CCCN1c1cnc(C(N)=O)c(Nc2cnn(C)c2)n1` [Example D-1, 5-[(2R,3R)-3-(4-cyclopropyl-2-fluorobenzamido)-2-methylpiperidin-1-yl]-3-[(1-methyl-1H-pyrazol-4-yl)amino]pyrazine-2-carboxamide], the half-maximal inhibitory concentration (IC50) on EGFR is 1000 to 10000 nM; on LCK it was 1000 to 10000 nM; at ITK, 100 to 1000 nM; at JAK3, 1000 to 10000 nM.
As for `CN(C)C(=O)N[C@@H]1CCCN(c2cnc(C(N)=O)c(Nc3ccc(C4(C)CCN(C5CCCC5)CC4)cc3)n2)[C@H]1CO` [Example D-60, 3-{[4-(1-cyclopentyl-4-methylpiperidin-4-yl)phenyl]amino}-5-[(2R,3R)-3-[(dimethylcarbamoyl)amino]-2-(hydroxymethyl)piperidin-1-yl]pyrazine-2-carboxamide], the IC50 on EGFR lay within 1000 to 10000 nM; on LCK, 1000 to 10000 nM; on ITK, 100 to 1000 nM; at JAK3 it was 1000 to 10000 nM.
With `C[C@@H]1[C@H](NC(=O)c2ccc(C3CC3)cc2)CCCN1c1cnc(C(N)=O)c(Nc2cnn(CC3CCOCC3)c2)n1` [Example D-319, 5-[(2R,3R)-3-(4-cyclopropylbenzamido)-2-methylpiperidin-1-yl]-3-{[1-(oxan-4-ylmethyl)-1H-pyrazol-4-yl]amino}pyrazine-2-carboxamide], the IC50 is 1000 to 10000 nM against EGFR, 100 to 1000 nM at LCK, 100 to 1000 nM at ITK and above 10000 nM at JAK3.
In the case of `CN(C)C(=O)N[C@H]1CCCN(c2cnc(C(N)=O)c(Nc3ccc(C4(C)CCN(C5CCCC5)CC4)cc3)n2)[C@@H]1CO` [Example D-61, 3-{[4-(1-cyclopentyl-4-methylpiperidin-4-yl)phenyl]amino}-5-[(2S,3S)-3-[(dimethylcarbamoyl)amino]-2-(hydroxymethyl)piperidin-1-yl]pyrazine-2-carboxamide], the IC50 against EGFR was above 10000 nM; on LCK, 1000 to 10000 nM; at ITK, 1000 to 10000 nM; at JAK3, above 10000 nM.
Take `C[C@@H]1[C@H](NC(=O)c2ccc(C(F)(F)F)cn2)CCCN1c1cnc(C(N)=O)c(Nc2cnn(C)c2)n1` [Example D-87, 3-[(1-methyl-1H-pyrazol-4-yl)amino]-5-[(2R,3R)-2-methyl-3-[5-(trifluoromethyl)pyridine-2-amido]piperidin-1-yl]pyrazine-2-carboxamide]: the IC50 against EGFR, on LCK, on ITK and at JAK3 was 100 to 1000 nM each time.
As for `C[C@@H]1[C@H](NC(=O)N(C)C)CCCN1c1cnc(C(N)=O)c(Nc2cn[nH]c2)n1` [Example D-53, 5-[(2R,3R)-3-[(dimethylcarbamoyl)amino]-2-methylpiperidin-1-yl]-3-[(1H-pyrazol-4-yl)amino]pyrazine-2-carboxamide], the IC50 at EGFR lay in the range of 1000 to 10000 nM; on LCK, 100 to 1000 nM; at ITK, 100 to 1000 nM; at JAK3 it was 1000 to 10000 nM.
Consider `CN(C)C(=O)N[C@H]1CCCN(c2cnc(C(N)=O)c(Nc3ccc4ncccc4c3)n2)[C@@H]1CO` (racemic) [Example D-64, trans 5-[3-[(dimethylcarbamoyl)amino]-2-(hydroxymethyl)piperidin-1-yl]-3-[(quinolin-6-yl)amino]pyrazine-2-carboxamide], for which the IC50 at EGFR, on LCK, at ITK and on JAK3 was above 10000 nM each time.
Regarding `Cn1cc(Nc2nc(N3CCC(NC(=O)c4ccc(C5CC5)cc4)C(O)C3)cnc2C(N)=O)cn1` (single isomer, unassigned) [Example D-28, Trans-5-[4-(4-cyclopropylbenzamido)-3-hydroxypiperidin-1-yl]-3-[(1-methyl-1H-pyrazol-4-yl)amino]pyrazine-2-carboxamide], the IC50 at EGFR was above 10000 nM; at LCK, above 10000 nM; against ITK, 1000 to 10000 nM; at JAK3, above 10000 nM.
In the case of `Cc1cc(Nc2nc(N3CCC[C@H](NC(=O)N(C)C)[C@@H]3CO)cnc2C(N)=O)sn1` [Example D-68, 5-[(2R,3S)-3-[(dimethylcarbamoyl)amino]-2-(hydroxymethyl)piperidin-1-yl]-3-[(3-methyl-1,2-thiazol-5-yl)amino]pyrazine-2-carboxamide], the IC50 was above 10000 nM at EGFR, above 10000 nM on LCK, above 10000 nM at ITK and 1000 to 10000 nM on JAK3.
For `CC1COc2cc(C(=O)N[C@@H]3CCCN(c4cnc(C(N)=O)c(Nc5cnn(C)c5)n4)[C@@H]3C)ccc2C1` (stereo partly drawn) [Example D-56, 3-[(1-methyl-1H-pyrazol-4-yl)amino]-5-[(2R,3R)-2-methyl-3-(3-methyl-3,4-dihydro-2H-1-benzopyran-7-amido)piperidin-1-yl]pyrazine-2-carboxamide], the IC50 is 100 to 1000 nM at EGFR, 10 to 100 nM at LCK, 100 to 1000 nM against ITK and above 10000 nM at JAK3.
`C[C@@H]1[C@H](N2CCN(C)C2=O)CCCN1c1cnc(C(N)=O)c(Nc2ccc(C3(C)CCN(C4CC4)CC3)cc2)n1` [Example D-38, 3-{[4-(1-cyclopropyl-4-methylpiperidin-4-yl)phenyl]amino}-5-[(2R,3R)-2-methyl-3-(3-methyl-2-oxoimidazolidin-1-yl)piperidin-1-yl]pyrazine-2-carboxamide]: the IC50 on EGFR was in the range of 100 to 1000 nM; at LCK, 10 to 100 nM; on ITK, 10 to 100 nM; on JAK3 it was 10 to 100 nM.
